# From PubChem BioAssay AID1918937 (Molecular Pharmacology Branch, DTP, NCI, 2023)
# pIC50: −log10 of the molar value. Values joined by “and” are separate entries in the source; they are usually repeats but may differ in a detail not shown here. Identical values can stand only once.
# Tested on: 521955-158-R2-J5-PDC complex spheroid viability
# Assay: Anticancer human tumor 521955-158-R2-J5-PDC patient-derived pancreatic carcinoma cell line growth inhibition
# Settings: for viability, T/C: stronger effect = lower value
# In short: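 Complex spheroids of tumor cells with HUVEC and human MSCs, exposed to iadademstat combined with other agents. Each agent tested in half-log steps from near clinical Cmax (else 10 microM top), DMSO ≤0.25%.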
# [1] = curve of first compound, second compound 0.1 µM
# [2] = curve of first compound, second compound 0.316 µM
# [3] = curve of first compound, second compound 1 µM
# [4] = curve of first compound, second compound 3.16 µM
# [5] = curve of first compound, second compound 10 µM
# [6] = second compound 0.1 µM, first compound 0.0316 µM
# [7] = second compound 0.1 µM, first compound 0.1 µM
# [8] = second compound 0.316 µM, first compound 0.0316 µM
# [9] = second compound 0.316 µM, first compound 0.1 µM
# [10] = second compound 1 µM, first compound 0.0316 µM
# [11] = second compound 1 µM, first compound 0.1 µM
# [12] = second compound 3.16 µM, first compound 0.0316 µM
# [13] = second compound 3.16 µM, first compound 0.1 µM
# [14] = second compound 10 µM, first compound 0.0316 µM
# [15] = second compound 10 µM, first compound 0.1 µM
# 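Further: spheroids exposed to agents for seven days.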
# 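Wherever viability, T/C is given: percent of DMSO vehicle control luminescence viability.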
compound,measurement,setting,value
Nc1ccccc1NC(=O)c1ccc(CNC(=O)OCc2cccnc2)cc1 + NC1CCC(NC2CC2c2ccccc2)CC1,pIC50,[1],6.49
same,pIC50,[2],6.41
same,pIC50,[3],6.47
same,pIC50,[4],6.53
same,pIC50,[5],6.48
same,"viability, T/C","second compound 0.1 µM, first compound 0.00949 µM",104%
same,"viability, T/C","second compound 0.1 µM, first compound 0.03 µM",107%
same,"viability, T/C","second compound 0.1 µM, first compound 0.0949 µM",86.8%
same,"viability, T/C","second compound 0.1 µM, first compound 0.3 µM",55.1%
same,"viability, T/C","second compound 0.1 µM, first compound 0.949 µM",9.73%
same,"viability, T/C","second compound 0.1 µM, first compound 3 µM",0.31%
same,"viability, T/C","second compound 0.316 µM, first compound 0.00949 µM",103%
same,"viability, T/C","second compound 0.316 µM, first compound 0.03 µM",99%
same,"viability, T/C","second compound 0.316 µM, first compound 0.0949 µM",88.7%
same,"viability, T/C","second compound 0.316 µM, first compound 0.3 µM",62.8%
same,"viability, T/C","second compound 0.316 µM, first compound 0.949 µM",11.8%
same,"viability, T/C","second compound 0.316 µM, first compound 3 µM",0.34%
same,"viability, T/C","second compound 1 µM, first compound 0.00949 µM",98.7%
same,"viability, T/C","second compound 1 µM, first compound 0.03 µM",101%
same,"viability, T/C","second compound 1 µM, first compound 0.0949 µM",84.4%
same,"viability, T/C","second compound 1 µM, first compound 0.3 µM",57%
same,"viability, T/C","second compound 1 µM, first compound 0.949 µM",12.4%
same,"viability, T/C","second compound 1 µM, first compound 3 µM",0.26%
same,"viability, T/C","second compound 3.16 µM, first compound 0.00949 µM",102%
same,"viability, T/C","second compound 3.16 µM, first compound 0.03 µM",101%
same,"viability, T/C","second compound 3.16 µM, first compound 0.0949 µM",80.4%
same,"viability, T/C","second compound 3.16 µM, first compound 0.3 µM",52.7%
same,"viability, T/C","second compound 3.16 µM, first compound 0.949 µM",10.7%
same,"viability, T/C","second compound 3.16 µM, first compound 3 µM",0.24%
same,"viability, T/C","second compound 10 µM, first compound 0.00949 µM",96.8%
same,"viability, T/C","second compound 10 µM, first compound 0.03 µM",98%
same,"viability, T/C","second compound 10 µM, first compound 0.0949 µM",78.2%
same,"viability, T/C","second compound 10 µM, first compound 0.3 µM",58.6%
same,"viability, T/C","second compound 10 µM, first compound 0.949 µM",10.2%
same,"viability, T/C","second compound 10 µM, first compound 3 µM",0.35%
CC(C)CC(NC(=O)C(Cc1ccccc1)NC(=O)c1cnccn1)B(O)O (configuration not stated) + NC1CCC(NC2CC2c2ccccc2)CC1,pIC50,[1],9.31
same,pIC50,[2],9.33
same,pIC50,[3],9.29
same,pIC50,[4],9.28
same,pIC50,[5],9.29
same,"viability, T/C","second compound 0.1 µM, first compound 0.000316 µM",80.7%
same,"viability, T/C","second compound 0.1 µM, first compound 0.001 µM",0.24%
same,"viability, T/C","second compound 0.1 µM, first compound 0.00316 µM",0.24%
same,"viability, T/C","second compound 0.1 µM, first compound 0.01 µM",0.06%
same,"viability, T/C",[6],0.05%
same,"viability, T/C",[7],0.94%
same,"viability, T/C","second compound 0.316 µM, first compound 0.000316 µM",75.7%
same,"viability, T/C","second compound 0.316 µM, first compound 0.001 µM",0.23%
same,"viability, T/C","second compound 0.316 µM, first compound 0.00316 µM",0.12%
same,"viability, T/C","second compound 0.316 µM, first compound 0.01 µM",0.04%
same,"viability, T/C",[8],0.07%
same,"viability, T/C",[9],0.21%
same,"viability, T/C","second compound 1 µM, first compound 0.000316 µM",84.9%
same,"viability, T/C","second compound 1 µM, first compound 0.001 µM",0.24%
same,"viability, T/C","second compound 1 µM, first compound 0.00316 µM",0.06%
same,"viability, T/C","second compound 1 µM, first compound 0.01 µM",0.04%
same,"viability, T/C",[10],0.09%
same,"viability, T/C",[11],0.2%
same,"viability, T/C","second compound 3.16 µM, first compound 0.000316 µM",88.1%
same,"viability, T/C","second compound 3.16 µM, first compound 0.001 µM",0.24%
same,"viability, T/C","second compound 3.16 µM, first compound 0.00316 µM",0.12%
same,"viability, T/C","second compound 3.16 µM, first compound 0.01 µM",0.04%
same,"viability, T/C",[12],0.06%
same,"viability, T/C",[13],5.74%
same,"viability, T/C","second compound 10 µM, first compound 0.000316 µM",82.9%
same,"viability, T/C","second compound 10 µM, first compound 0.001 µM",4.43%
same,"viability, T/C","second compound 10 µM, first compound 0.00316 µM",0.22%
same,"viability, T/C","second compound 10 µM, first compound 0.01 µM",0.39%
same,"viability, T/C",[14],0.18%
same,"viability, T/C",[15],0.72%
CC(C)c1c(-c2ccccc2)nc2c(C#N)c[nH]n2c1=O,"viability, T/C",compound 0.0316 µM,104% and 98.1%
same,"viability, T/C",compound 0.1 µM,108% and 97.9%
same,"viability, T/C",compound 0.316 µM,105% and 104%
same,"viability, T/C",compound 1 µM,101% and 86.4%
same,"viability, T/C",compound 3.16 µM,102% and 94.2%
same,"viability, T/C",compound 10 µM,86.5% and 85.9%
same,pIC50,curve of compound,< 5.00
O=C(c1cc(Cc2n[nH]c(=O)c3ccccc23)ccc1F)N1CCN(C(=O)C2CC2)CC1 + NC1CC1c1ccc(-c2cccc(O)c2)cc1,pIC50,[1],< 5.00
same,pIC50,[2],< 5.00
same,pIC50,[3],< 5.00
same,pIC50,[4],< 5.00
same,pIC50,[5],< 5.00
same,"viability, T/C",[6],80.9%
same,"viability, T/C",[7],87.5%
same,"viability, T/C","second compound 0.1 µM, first compound 0.316 µM",88.4%
same,"viability, T/C","second compound 0.1 µM, first compound 1 µM",87.4%
same,"viability, T/C","second compound 0.1 µM, first compound 3.16 µM",81.5%
same,"viability, T/C","second compound 0.1 µM, first compound 10 µM",69.1%
same,"viability, T/C",[8],90.5%
same,"viability, T/C",[9],82.3%
same,"viability, T/C","second compound 0.316 µM, first compound 0.316 µM",89.1%
same,"viability, T/C","second compound 0.316 µM, first compound 1 µM",74.7%
same,"viability, T/C","second compound 0.316 µM, first compound 3.16 µM",74.6%
same,"viability, T/C","second compound 0.316 µM, first compound 10 µM",66.2%
same,"viability, T/C",[10],77.9%
same,"viability, T/C",[11],79.7%
same,"viability, T/C","second compound 1 µM, first compound 0.316 µM",79.7%
same,"viability, T/C","second compound 1 µM, first compound 1 µM",77.1%
same,"viability, T/C","second compound 1 µM, first compound 3.16 µM",67%
same,"viability, T/C","second compound 1 µM, first compound 10 µM",59.5%
same,"viability, T/C",[12],81.8%
same,"viability, T/C",[13],82.2%
same,"viability, T/C","second compound 3.16 µM, first compound 0.316 µM",83.3%
same,"viability, T/C","second compound 3.16 µM, first compound 1 µM",75.6%
same,"viability, T/C","second compound 3.16 µM, first compound 3.16 µM",69.1%
same,"viability, T/C","second compound 3.16 µM, first compound 10 µM",55.8%
same,"viability, T/C",[14],87.7%
same,"viability, T/C",[15],84.9%
same,"viability, T/C","second compound 10 µM, first compound 0.316 µM",83.4%
same,"viability, T/C","second compound 10 µM, first compound 1 µM",78.4%
same,"viability, T/C","second compound 10 µM, first compound 3.16 µM",68.1%
same,"viability, T/C","second compound 10 µM, first compound 10 µM",55.7%
